Where two headings read alike, the source gives them in different places.
System: Wnt signaling
Assay: TopFlash reporter gene bioassay in SW480 cells
Type: cell-based
Conditions: read-out: RGA, IC50 (μM) TopF
[1] = Homo sapiens, SW480, TopFlash reporter gene assay, inhibition of Wnt signaling
[2] = TopFlash reporter gene assay, inhibition of Wnt signaling

SMILES | IC50 [1] [µM] | other results
C=CCOc1c(CN2C[C@H]3N(C(=O)CN(CC=C)N3C(=O)NCc3ccccc3)[C@@H](Cc3ccc(O)cc3)C2=O)cccc1OC [compound 90] | – | IC50 (Homo sapiens, SW480): 1.03 ± 0.16 µM
C=CCN1CC(=O)N2[C@@H](Cc3ccc(OP(=O)(O)O)cc3)C(=O)N(Cc3cccc4ccnn34)C[C@@H]2N1C(=O)NCc1ccccc1 [compound 92] | – | IC50 (Homo sapiens, SW480): 1.04 ± 0.18 µM
C=CCN1CC(=O)N2[C@@H](Cc3ccc(OP(=O)(O)O)cc3)C(=O)N(Cc3cccc(N4CCCC4=O)c3)C[C@@H]2N1C(=O)NCc1ccccc1 [compound 94] | – | IC50 (Homo sapiens, SW480): 1.09 ± 0.16 µM
C=CCN1CC(=O)N2[C@@H](Cc3ccc(OP(=O)(O)O)cc3)C(=O)N(Cc3ccccc3N3CCCC3)C[C@@H]2N1C(=O)NCc1ccccc1 [compound 112] | – | IC50 (Homo sapiens, SW480): 1.41 ± 0.21 µM
C=CCN1CC(=O)N2[C@@H](Cc3ccc(O)cc3)C(=O)N(Cc3cccc(-c4ccccc4O)c3)C[C@@H]2N1C(=O)NCc1ccccc1 [compound 115] | 1.43 ± 0.27 | –
C=CCN1CC(=O)N2C(CN(Cc3cccc(C#CC(C)(C)C)n3)C(=O)[C@@H]2Cc2ccc(O)cc2)N1C(=O)NCc1ccccc1 (some centres unmarked) [compound 116] | 1.43 ± 0.26 | –
C=CCN1CC(=O)N2[C@@H](Cc3ccc(O)cc3)C(=O)N(Cc3ccc(OC)c(Cl)c3)C[C@@H]2N1C(=O)NCc1ccccc1 [compound 117] | 1.44 ± 0.22 | –
C=CCN1CC(=O)N2[C@@H](Cc3ccc(O)cc3)C(=O)N(Cc3cccc(C(=O)O)c3)C[C@@H]2N1C(=O)NCc1ccc(Cl)cc1Cl [compound 119] | 1.51 ± 0.16 | –
C=CCN1CC(=O)N2[C@@H](Cc3ccc(O)cc3)C(=O)N(Cc3cccc(-c4ccc(OC)nc4)c3)C[C@@H]2N1C(=O)NCc1ccccc1 [compound 121] | 1.53 ± 0.17 | –
C=CCN1CC(=O)N2[C@@H](Cc3ccc(O)cc3)C(=O)N(Cc3cccc(Cl)c3N(C)C)C[C@@H]2N1C(=O)NCc1ccccc1 [compound 122] | 1.54 ± 0.07 | –
C=CCOc1ccc(CN2C[C@H]3N(C(=O)CN(CC=C)N3C(=O)NCc3ccccc3)[C@@H](Cc3ccc(O)cc3)C2=O)cc1 [compound 123] | 1.55 ± 0.21 | –
C=CCN1CC(=O)N2[C@@H](Cc3ccc(O)cc3)C(=O)N(Cc3cccc4c3OC(F)(F)O4)C[C@@H]2N1C(=O)NCc1ccccc1 [compound 124] | 1.56 ± 0.33 | –
C=CCN1CC(=O)N2[C@@H](Cc3ccc(O)cc3)C(=O)N(Cc3cccnc3Br)C[C@@H]2N1C(=O)NCc1ccccc1 [compound 125] | 1.57 ± 0.29 | –
C=CCN1CC(=O)N2[C@@H](Cc3ccc(O)cc3)C(=O)N(Cc3cccc(-c4cccc(C#N)c4)c3)C[C@@H]2N1C(=O)NCc1ccccc1 [compound 126] | 1.58 ± 0.27 | –
C=CCN1CC(=O)N2[C@@H](Cc3ccc(O)cc3)C(=O)N(Cc3cccc(-c4ccccc4OC)c3)C[C@@H]2N1C(=O)NCc1ccccc1 [compound 127] | 1.61 ± 0.31 | –
C=CCN1CC(=O)N2[C@@H](Cc3ccc(O)cc3)C(=O)N(Cc3ccccc3N(C)Cc3ccccc3)C[C@@H]2N1C(=O)NCc1ccccc1 [compound 128] | 1.61 ± 0.59 | –

SMILES | IC50 [1] [µM] | other results
C=CCN1CC(=O)N2[C@@H](Cc3ccc(O)cc3)C(=O)N(Cc3ccc(OC)c(Br)c3)C[C@@H]2N1C(=O)NCc1ccccc1 [compound 129] | 1.64 ± 0.27 | –
C=CCN1CC(=O)N2[C@@H](Cc3ccc(O)cc3)C(=O)N(Cc3cccc(C(=O)NCCC4=CCCCC4)c3)C[C@@H]2N1C(=O)NCc1ccccc1 [compound 130] | 1.66 ± 0.18 | –
C=CCN1CC(=O)N2[C@@H](Cc3ccc(O)cc3)C(=O)N(Cc3cccc(C(=O)OC)c3[N+](=O)[O-])C[C@@H]2N1C(=O)NCc1ccccc1 [compound 131] | 1.66 ± 0.27 | –
C=CCN1CC(=O)N2[C@@H](Cc3ccc(O)cc3)C(=O)N(Cc3cccc(C#N)c3)C[C@@H]2N1C(=O)NCc1ccccc1 [compound 132] | 1.71 ± 0.28 | –
C=CCN1CC(=O)N2[C@@H](Cc3ccc(O)cc3)C(=O)N(Cc3cccc(-c4nccs4)c3)C[C@@H]2N1C(=O)NCc1ccccc1 [compound 133] | – | IC50 [2]: 1.73 ± 0.22 µM
C=CCN1CC(=O)N2[C@@H](Cc3ccc(O)cc3)C(=O)N(Cc3cccc(-c4ccc(OC)cc4)n3)C[C@@H]2N1C(=O)NCc1ccccc1 [compound 134] | 1.73 ± 0.35 | –
C=CCN1CC(=O)N2[C@@H](Cc3ccc(O)cc3)C(=O)N(Cc3cccc(C(=O)NCCCOCCCC)c3)C[C@@H]2N1C(=O)NCc1ccccc1 [compound 135] | 1.77 ± 0.15 | –
C=CCOc1ccc(CN2C[C@H]3N(C(=O)CN(CC=C)N3C(=O)NCc3ccccc3)[C@@H](Cc3ccc(OP(=O)(O)O)cc3)C2=O)cc1 [compound 136] | – | IC50 (Homo sapiens, SW480): 1.83 ± 0.32 µM
C=CCN1CC(=O)N2[C@@H](Cc3ccc(O)cc3)C(=O)N(Cc3cccc(-c4cccc(OC)c4)c3)C[C@@H]2N1C(=O)NCc1ccccc1 [compound 137] | 1.86 ± 0.3 | –
C=CCN1CC(=O)N2[C@@H](Cc3ccc(O)cc3)C(=O)N(Cc3csc4cc(NCc5ccccc5)ccc34)C[C@@H]2N1C(=O)NCc1ccccc1 [compound 138] | – | IC50 [2]: 1.86 ± 0.38 µM
C=CCN1CC(=O)N2[C@@H](Cc3ccc(O)cc3)C(=O)N(Cc3cccc(OC)c3OC3CCCC3)C[C@@H]2N1C(=O)NCc1ccccc1 [compound 139] | 1.89 ± 0.38 | –
C=CCN1CC(=O)N2[C@@H](Cc3ccc(O)cc3)C(=O)N(Cc3cccc(-c4ccc(OC)cc4)c3)C[C@@H]2N1C(=O)NCc1ccccc1 [compound 140] | 1.91 ± 0.24 | –
C=CCN1CC(=O)N2[C@@H](Cc3ccc(O)cc3)C(=O)N(Cc3cccc(-c4ccc(F)cc4)n3)C[C@@H]2N1C(=O)NCc1ccccc1 [compound 141] | 1.91 ± 0.28 | –
C=CCN1CC(=O)N2[C@@H](Cc3ccc(O)cc3)C(=O)N(Cc3csc4cc(NC(C)=O)ccc34)C[C@@H]2N1C(=O)NCc1ccccc1 [compound 142] | 1.92 ± 0.28 | –
C=CCOc1c(CN2C[C@H]3N(C(=O)CN(CC=C)N3C(=O)NCc3ccccc3)[C@@H](Cc3ccc(O)cc3)C2=O)cccc1C(C)(C)C [compound 143] | 1.93 ± 0.18 | –
C=CCN1CC(=O)N2[C@@H](Cc3ccc(O)cc3)C(=O)N(Cc3cccc(-c4ccccc4)c3)C[C@@H]2N1C(=O)NCc1ccccc1 [compound 144] | 1.94 ± 0.48 | –

Further lines, with some results ahead:

IC50 [1] [µM] | SMILES | other results
0.99 ± 0.14 | C=CCN1CC(=O)N2[C@@H](Cc3ccc(O)cc3)C(=O)N(Cc3cccc(-c4cccc(N)c4)c3)C[C@@H]2N1C(=O)NCc1ccccc1 [compound 82] | –
1 ± 0.22 | C=CCN1CC(=O)N2[C@@H](Cc3ccc(O)cc3)C(=O)N(Cc3csc4ccc(NC(C)=O)cc34)C[C@@H]2N1C(=O)NCc1ccccc1 [compound 85] | –
1.01 ± 0.24 | C=CCN1CC(=O)N2[C@@H](Cc3ccc(O)cc3)C(=O)N(Cc3cccc4c(=O)ccoc34)C[C@@H]2N1C(=O)NCc1ccccc1 [compound 87] | –
1.03 ± 0.11 | C=CCN1CC(=O)N2[C@@H](Cc3ccc(O)cc3)C(=O)N(Cc3cccc(C(C)(C)C)c3OC)C[C@@H]2N1C(=O)NCc1ccccc1 [compound 89] | –
1.04 ± 0.18 | C=CCN1CC(=O)N2[C@@H](Cc3ccc(O)cc3)C(=O)N(Cc3cccc(C(=O)NCCOC)c3)C[C@@H]2N1C(=O)NCc1ccccc1 [compound 91] | –
1.07 ± 0.2 | C=CCN1CC(=O)N2[C@@H](Cc3ccc(O)cc3)C(=O)N(Cc3cccc4c3nc(C(F)(F)F)n4C)C[C@@H]2N1C(=O)NCc1ccccc1 [compound 93] | –
1.1 ± 0.12 | C=CCN1CC(=O)N2[C@@H](Cc3ccc(O)cc3)C(=O)N(Cc3cccc(C4CC4)n3)C[C@@H]2N1C(=O)NCc1ccccc1 [compound 95] | –
1.11 ± 0.25 | C=CCN1CC(=O)N2[C@@H](Cc3ccc(O)cc3)C(=O)N(Cc3ccccc3N3CCCC3)C[C@@H]2N1C(=O)NCc1ccccc1 [compound 96] | –
1.13 ± 0.05 | C=CCN1CC(=O)N2[C@@H](Cc3ccc(O)cc3)C(=O)N(Cc3cccc(C#N)c3F)C[C@@H]2N1C(=O)NCc1ccccc1 [compound 97] | –
1.17 ± 0.15 | C=CCN1CC(=O)N2[C@@H](Cc3ccc(O)cc3)C(=O)N(Cc3cccc(-c4cccnc4OC)c3)C[C@@H]2N1C(=O)NCc1ccccc1 [compound 98] | –
1.17 ± 0.27 | C=CCN1CC(=O)N2[C@@H](Cc3ccc(O)cc3)C(=O)N(Cc3cccc4c3ncn4C(=O)CNC(=O)OC(C)(C)C)C[C@@H]2N1C(=O)NCc1ccccc1 [compound 99] | –
1.21 ± 0.14 | C=CCN1CC(=O)N2[C@@H](Cc3ccc(O)cc3)C(=O)N(Cc3csc4ccc(N)cc34)C[C@@H]2N1C(=O)NCc1ccccc1 [compound 100] | –
1.24 ± 0.07 | C=CCN1CC(=O)N2[C@@H](Cc3ccc(O)cc3)C(=O)N(Cc3cccc(C(=O)NCC4CCCCC4)c3)C[C@@H]2N1C(=O)NCc1ccccc1 [compound 101] | –
1.25 ± 0.21 | C=CCN1CC(=O)N2[C@@H](Cc3ccc(O)cc3)C(=O)N(Cc3cccc(NC(C)=O)c3)C[C@@H]2N1C(=O)NCc1ccccc1 [compound 102] | –
1.26 ± 0.19 | C=CCN1CC(=O)N2[C@@H](Cc3ccc(O)cc3)C(=O)N(Cc3ccc(F)c4scnc34)C[C@@H]2N1C(=O)NCc1ccc(C)cc1 [compound 103] | –
1.27 ± 0.1 | C=CCN1CC(=O)N2[C@@H](Cc3ccc(O)cc3)C(=O)N(Cc3ccc(F)c4scnc34)C[C@@H]2N1C(=O)NCCc1cccs1 [compound 104] | –
1.27 ± 0.24 | C=CCN1CC(=O)N2[C@@H](Cc3ccc(O)cc3)C(=O)N(Cc3cccc(OC)c3OS(=O)(=O)c3ccc(Cl)cc3)C[C@@H]2N1C(=O)NCc1ccccc1 [compound 105] | –
1.28 ± 0.1 | C=CCN1CC(=O)N2[C@@H](Cc3ccc(O)cc3)C(=O)N(Cc3cccc(C(=O)NCC4CCCO4)c3)C[C@@H]2N1C(=O)NCc1ccccc1 (some centres unmarked) [compound 106] | –
1.3 ± 0.2 | C=CCN1CC(=O)N2[C@@H](Cc3ccc(O)cc3)C(=O)N(Cc3ccc(F)c4scnc34)C[C@@H]2N1C(=O)NCc1cccs1 [compound 107] | –
1.31 ± 0.33 | C=CCN1CC(=O)N2[C@@H](Cc3ccc(O)cc3)C(=O)N(Cc3cccnc3C3CC3)C[C@@H]2N1C(=O)NCc1ccccc1 [compound 108] | –
1.35 ± 0.15 | C=CCN1CC(=O)N2[C@@H](Cc3ccc(O)cc3)C(=O)N(Cc3cccc(N(C)C(=O)OC)c3)C[C@@H]2N1C(=O)NCc1ccccc1 [compound 109] | –
1.41 ± 0.21 | C=CCN1CC(=O)N2[C@@H](Cc3ccc(O)cc3)C(=O)N(Cc3csc4cc(NC=O)ccc34)C[C@@H]2N1C(=O)NCc1ccccc1 [compound 111] | –
1.41 ± 0.38 | C=CCN1CC(=O)N2[C@@H](Cc3ccc(O)cc3)C(=O)N(Cc3cccc(N(C)C=O)c3)C[C@@H]2N1C(=O)NCc1ccccc1 [compound 113] | –
1.42 ± 0.51 | C=CCN1CC(=O)N2[C@@H](Cc3ccc(O)cc3)C(=O)N(Cc3cccc(C(=O)N4CCCCC4)c3)C[C@@H]2N1C(=O)NCc1ccccc1 [compound 114] | –

Reference: US8080657B2, “Compounds of reverse turn mimetics and the use thereof” (Choongwae Pharma Corporation, priority 2008, dated 2011)
